Laboratory results reported in patent publication US9371274B2, “Compound having read-through activity” (The University of Tokyo, priority 2011, dated 2016).
Entries after “also recorded” stand apart in the source; their conditions may differ.

system: not given; assay: not given; conditions: prior knowledge; cited from earlier work

In the case of `CN(CC(=O)O)NC(=O)C[C@H](N)C[C@@H](O)CN` [negamycin, methylhydrazinoacetic acid-linked δ-hydroxy-β-lysine, reference compound], the “antimicrobial activity (in words)” value is given as “high antimicrobial activity”.
For `CC(C)C[C@H](N)C(=O)N[C@@H](CC(=O)CN)CC(=O)NN(C)CC(=O)O` [3-N-leucyl-3-epi-5-dehydronegamycin], the “antimicrobial activity (in words)” value is listed as “no antimicrobial activity”.
For `CN(CC(=O)O)NC(=O)CC(N)CCCN` (stereo not drawn) [3-Epi-5-dehydroxynegamycin], the “antimicrobial activity (in words)” value is listed as “weak antimicrobial activity”.

system: premature stop codon; assay: Read-through activity stated in the description, test not specified; conditions: statement of the inventors' finding, no test named

For `CC(C)C[C@H](N)C(=O)N[C@@H](CC(=O)CN)CC(=O)NN(C)CC(=O)O` [3-N-leucyl-3-epi-5-dehydronegamycin], the “read-through activity (in words)” value was “potent read-through activity”.
With `CN(CC(=O)O)NC(=O)CC(N)CC(O)CN` (stereo not drawn) [5-epi-negamycin] the “read-through activity (in words)” value was “has read-through activity”.

system: transgenic mice with luciferase gene and β-galactosidase gene as reporter genes; assay: In vivo read-through activity in reporter transgenic mice (rectus femoris and gastrosoleus muscle); conditions: subcutaneous, every 24 hours for seven consecutive days; muscle excised on the eighth day
Experimental: Transgenic mice were produced by introducing a luciferase gene and […] gene as reporter genes by the method described in International Publication WO2008/004610 pamphlet.
A physiological saline solution of example compound 2 synthesized in Example 1 was administered subcutaneously to the abdomen of the transgenic mice produced every 24 hours for seven consecutive days. On the eighth day, the rectus femoris and the gastrosoleus muscle of the mice were excised. After mincing by ophthalmological scissors, three times the wet weight of Reporter Lysis Buffer (Promega, US) was added, and the tissue was disrupted by Physcotron (Niti-on Co., Ltd.). After freezing overnight and thawing, the supernatant obtained by centrifugation was introduced into a 96-well plate, and the β-galactosidase activity was measured by a Beta-Glo Assay System (Promega, US) and the luciferase activity was measured by a Bright-Glo Assay System (Promega, US). A luminometer (ATTO) was used in measurement. The luciferase activity value was divided by the […] activity value, and the value multiplied by 10^4 was taken as the read-through efficiency.

With `CN(CC(=O)O)NC(=O)C[C@@H](N)CCCN` [Example Compound 2, (S)-2-(2-(3,6-diaminohexanoyl)-1-methylhydrazinyl)acetic acid] the “read-through activity in vivo (FIG. 4, in words)” value was “high read-through activity even in comparison to gentamicin and 5-epi-negamycin”.

system: reporter gene with premature stop codon (TGA) in COS-7 cells; assay: In vitro read-through activity, COS-7 cells transfected with β-galactosidase/luciferase reporter gene; type: cell-based, African green monkey; conditions: COS-7, TGA reporter, compared with negamycin
Experimental: African green monkey SV40-transformed kidney fibroblast cell line (COS-7) was sown in 100×20 mm cell culture dishes manufactured by Falcon and cultured at 37° C. in 5% CO2. Fifty milliliters of fetal bovine serum (FBS) was added to 500 mL of D-MEM (containing high glucose, L-glutamine, and phenol red) manufactured by Wako Pure Chemical Industries Ltd., and culture broth prepared to adjust to 10% FBS was used as the culture broth. (Referred to hereinafter as culture broth.)
The Reporter Lysis Buffer 5×, assay 2× buffer, 1 M Na2CO3, and standard used in creation of the calibration curve referred to hereinafter are included in the β-Galactosidase Enzyme Assay System with Reporter Lysis Buffer manufactured by Promega.
COS-7 cells (8.0×10^3 cells/well) were seeded by continuous dispensing of 100 μL each into flat-bottom 96-well plates (Costar (registered trade mark) 3596) manufactured by Corning and incubated for 15-16 hours at 37° C.
A quantity of 4 μL/well of DNA solution prepared in a ratio of 1.32 μL (2 μg) of reporter gene (a construct obtained by linking a β-galactosidase gene and a luciferase gene and inserting a premature stop codon (TGA) at their juncture), 100 μL of OPTI-MEM (registered trade mark) I (Reduced Serum Medium 1×) manufactured by Invitrogen, and 4 μL of FuGENE (registered trade mark) HD Transfection Reagent manufactured by Roche was added to the solution and incubated for 10-11 hours at 37° C.
The entire culture broth was aspirated, and the compound to be evaluated was prepared to adjust to 200 μM by culture broth and added by continuously dispensing 200 μL/well. 100 μM and 50 μM were also prepared in the same way and added by continuously dispensing 200 μL each. Incubation was carried out for 48 hours at 37° C. after addition.
After 48 hours had elapsed, the entire culture broth in the well was aspirated and washed twice with PBS. The Reporter Lysis Buffer 5× was then diluted by MilliQ, and a solution prepared to adjust to Reporter Lysis Buffer l× was added by continuously dispensing 100 μL each and allowed to stand for 15 minutes at room temperature. The contents of each well were recovered thereafter, and the entire amount was transferred to Nunc microwell plates (V bottom) manufactured by Thermo Fisher Scientific and centrifuged (1800 rpm, 15 minutes). Eighty-five microliters of this lysate was transferred to Nunc low-binding 96-well plates (flat bottom) clear manufactured by Thermo Fisher Scientific.
Using Nunc low-binding 96-well plates (flat bottom) clear manufactured by Thermo Fisher Scientific, 30 μL/well of Reporter Lysis Buffer l× was added by dispensing continuously, followed by addition of 20 μL of the recovered lysate to make 50 μL. Separately, the standard required for creation of a calibration curve was added to make 0, 1, 2, 3, 4, and 5 mU according to the protocol of the β-Galactosidase Enzyme Assay System with Reporter Lysis Buffer manufactured by Promega. A quantity of 50 μL of Assay 2× buffer was added to each of these wells and incubated for 25 minutes at room temperature. A quantity of 150 μL/well of 1M Na2CO3, a reaction-stopping solution, was added, and the […] (420 nm, reference […]) was measured immediately using an absorption/fluorescence microplate reader Tecan Safire manufactured by Tecan. A calibration curve was created from the absorbance of the standard, and the absorbance converted to mU according to this calibration curve was taken as the activity value.
A quantity of 50 μL/well of the recovered lysate was added to 96-well white plates (Costar (registered trade mark) 3912) manufactured by Corning and incubated for five minutes at room temperature after adding 100 μL of PicaGene (registered trade mark) manufactured by Toyo Ink Co., Ltd. After five minutes, the emission intensity was measured by a Berthold luminometer MicroLumat Plus LB96V manufactured by Berthold Japan. […]

For `CC(C)C[C@H](N)C(=O)N[C@@H](CCCN)CC(=O)NN(C)CC(=O)O` [Example Compound 7, 2-(2-((S)-6-amino-3-((S)-2-amino-4-methylpentanamide)hexanoyl)-1-methylhydrazinyl)acetic acid], the “read-through activity / read-through efficiency (FIG. 1-3, in words)” value was “remarkably high read-through efficiency in comparison even to negamycin”.
For `CCOC(=O)CN(C)NC(=O)C[C@@H](N)CCCN` [Example Compound 5, (S)-ethyl 2-(2-(3,6-diaminohexanoyl)-1-methylhydrazinyl)acetate], the “read-through activity / read-through efficiency (FIG. 1-3, in words)” value was “remarkably high read-through efficiency in comparison even to negamycin”.
In the case of `CN(CC(=O)O)NC(=O)C[C@@H](N)CCN` [Example Compound 3, (S)-2-(2-(3,5-diaminopentanoyl)-1-methylhydrazinyl)acetic acid], the “read-through activity / read-through efficiency (FIG. 1-3, in words)” value is reported as “remarkably high read-through efficiency in comparison even to negamycin; also recorded: read-through efficiency equal to or greater than that of negamycin”.
With `CN(CC(=O)O)NC(=O)C[C@@H](N)CCCN` [Example Compound 2, (S)-2-(2-(3,6-diaminohexanoyl)-1-methylhydrazinyl)acetic acid] the “read-through activity / read-through efficiency (FIG. 1-3, in words)” value was “remarkably high read-through efficiency in comparison even to negamycin”.

same assay, conditions: same method as Example 16; luciferase activity divided by β-galactosidase activity; 48 hours incubation; concentration for these values not given

Compared with `CN(CC(=O)O)NC(=O)C[C@@H](N)CCNS(C)(=O)=O` [compound 32], `CCCNCC[C@H](N)CC(=O)NN(C)CC(=O)O` [compound 26] is higher in “Read-through Activity” value: 1.24 ± 0.09 for the first, 1.44 ± 0.04 for the second.

Compared with `CN(CC(=O)OCc1ccc(Br)cc1)NC(=O)C[C@@H](N)CCN` [compound 22], `CN(CC(=O)OCc1ccccc1)NC(=O)C[C@@H](N)CCN` [compound 24] is lower in “Read-through Activity” value: 5.18 ± 0.04 for the first, 3.89 ± 0.16 for the second.

`CN(CC(=O)O)NC(=O)C[C@H](CCN)NC(=O)CN` [compound 37] and `CN(CC(=O)O)NC(=O)C[C@H](CCCN)NC(=O)CN` [compound 17] are within error of each other in “Read-through Activity” value: 2.78 ± 0.67 for the first, 2.10 ± 0.90 for the second.

`CN(CC(=O)O)NC(=O)C[C@H](CCN)NC(=O)[C@@H](N)CC(=O)O` [compound 44] and `CN(CC(=O)O)NC(=O)C[C@H](CCN)NC(=O)[C@@H](N)CCN` [compound 40] are within error of each other in “Read-through Activity” value: 1.58 ± 0.05 for the first, 1.50 ± 0.05 for the second.

Compared with `CN(CC(=O)O)NC(=O)C[C@H](N)C[C@@H](O)CN` [negamycin, methylhydrazinoacetic acid-linked δ-hydroxy-β-lysine, reference compound], `CN(CC(=O)O)NC(=O)C[C@@H](N)CCNC(=O)CN` [compound 29] is higher in “Read-through Activity” value: 1.53±0.04 for the first, 2.84 ± 0.06 for the second.

Going from `CC(C)[C@H](N)C(=O)N[C@@H](CCN)CC(=O)NN(C)CC(=O)O` [compound 35] to `CC(C)[C@H](N)C(=O)N[C@@H](CCCN)CC(=O)NN(C)CC(=O)O` [compound 16], the “Read-through Activity” value falls from 3.09 ± 0.62 to 1.87 ± 0.29.

Compared with `CN(CC(=O)OCc1ccccc1Br)NC(=O)C[C@@H](N)CCN` [compound 20], `CN(CC(=O)O)NC(=O)C[C@@H](N)CCNCc1ccccc1` [compound 28] is lower in “Read-through Activity” value: 7.07 ± 0.45 for the first, 1.40 ± 0.04 for the second.

Going from `CN(CC(=O)OCc1ccccc1Br)NC(=O)C[C@@H](N)CCN` [compound 25] to `CN(CC(=O)O)NC(=O)C[C@@H](N)CCNCc1ccccc1` [compound 33], the “Read-through Activity” value rises from 1.26 ± 0.07 to 2.34 ± 0.11.

Compared with `CN(CC(=O)O)NC(=O)C[C@H](CCN)NC(=O)[C@@H](N)CCCCN` [compound 42], `CN(CC(=O)O)NC(=O)C[C@H](CCN)NC(=O)[C@@H](N)CCCN` [compound 46] is lower in “Read-through Activity” value: 2.14 ± 0.18 for the first, 1.60 ± 0.13 for the second.

`CC[C@H](C)[C@H](N)C(=O)N[C@@H](CCN)CC(=O)NN(C)CC(=O)O` [compound 38] and `C[C@H](N)C(=O)N[C@@H](CCN)CC(=O)NN(C)CC(=O)O` [compound 36] are within error of each other in “Read-through Activity” value: 1.75 ± 0.19 for the first, 1.92 ± 0.40 for the second.

`CN(CC(=O)O)NC(=O)C[C@H](CCN)NC(=O)[C@@H](N)CCN` [compound 45] and `C[C@H](N)C(=O)N[C@@H](CCN)CC(=O)NN(C)CC(=O)O` [compound 41] are within error of each other in “Read-through Activity” value: 1.65 ± 0.18 for the first, 1.57 ± 0.05 for the second.

Going from `CC[C@H](C)[C@H](N)C(=O)N[C@@H](CCN)CC(=O)NN(C)CC(=O)O` [compound 43] to `CC(C)C[C@@H](N)C(=O)N[C@@H](CCCN)CC(=O)NN(C)CC(=O)O` [compound 18], the “Read-through Activity” value falls from 2.20 ± 0.05 to 1.30 ± 0.09.

Going from `CN(CC(=O)O)NC(=O)C[C@H](CCCN)NC(=O)[C@@H](N)Cc1ccccc1` [compound 14] to `CN(CC(=O)O)NC(=O)C[C@H](CCN)NC(=O)[C@@H](N)Cc1ccc(O)cc1` [compound 39], the “Read-through Activity” value falls from 2.13 ± 0.08 to 1.63 ± 0.14.

First: CC(C)C[C@@H](N)C(=O)N[C@@H](CCCN)CC(=O)NN(C)CC(=O)O [compound 23]
Second: CN(CC(=O)O)NC(=O)C[C@H](CCCN)NC(=O)[C@@H](N)Cc1ccccc1 [compound 19]
The “Read-through Activity” value of the first is higher: 5.65 ± 0.09 for the first, 3.25 ± 0.07 for the second.

`CCOC(=O)N(CC(=O)O)NC(=O)C[C@@H](N)CCCN` [compound 15] and `CN(CC(=O)O)NC(=O)C[C@@H](N)CCNC(=O)CN` [compound 34] are within error of each other in “Read-through Activity” value: 1.92 ± 0.21 for the first, 2.00 ± 0.13 for the second.

In the case of `CCCCCNCC[C@H](N)CC(=O)NN(C)CC(=O)O` [compound 27], the “Read-through Activity” value is reported as 1.64 ± 0.12.
